Values after ≈ are worked out from the molar mass of the structure shown.
Key:
SF-295 = assay: Cytotoxicity against human SF295 cells after 1 hr compound washout; type: functional, cell-based; conditions: SF-295, 1 h
HL-60 = assay: Cytotoxicity against human HL60 cells; type: functional; conditions: for TGI: read-out: pTGI (converted)
MOLT-4 = assay: Cytotoxicity against human MOLT4 cells; type: functional; conditions: for TGI: read-out: pTGI (converted)
A549 = assay: Cytotoxicity against human A549 cells; type: functional; conditions: for TGI: read-out: pTGI (converted)
EKVX = assay: Cytotoxicity against human EKVX cells; type: functional; conditions: for TGI: read-out: pTGI (converted)
HOP-92 = assay: Cytotoxicity against human HOP92 cells; type: functional; conditions: for TGI: read-out: pTGI (converted)
NCI-H322M = assay: Cytotoxicity against human NCI-H322M cells; type: functional; conditions: for TGI: read-out: pTGI (converted)
NCI-H522 = assay: Cytotoxicity against human NCI-H522 cells; type: functional; conditions: for TGI: read-out: pTGI (converted)
HCT-116 = assay: Cytotoxicity against human HCT116 cells; type: functional; conditions: for TGI: read-out: pTGI (converted)
HCT-15 = assay: Cytotoxicity against human HCT15 cells; type: functional; conditions: for TGI: read-out: pTGI (converted)
KM12 = assay: Cytotoxicity against human KM12 cells; type: functional; conditions: for TGI: read-out: pTGI (converted)
M14 = assay: Cytotoxicity against human M14 cells; type: functional; conditions: for TGI: read-out: pTGI (converted)
SK-MEL-2 = assay: Cytotoxicity against human SK-MEL-2 cells; type: functional; conditions: for TGI: read-out: pTGI (converted)
SK-MEL-5 = assay: Cytotoxicity against human SK-MEL-5 cells; type: functional; conditions: for TGI: read-out: pTGI (converted)
UACC-257 = assay: Cytotoxicity against human UACC257 cells; type: functional; conditions: for TGI: read-out: pTGI (converted)
OVCAR-4 = assay: Cytotoxicity against human OVCAR4 cells; type: functional; conditions: for TGI: read-out: pTGI (converted)
ACHN = assay: Cytotoxicity against human ACHN cells; type: functional; conditions: for TGI: read-out: pTGI (converted)
MCF7 = assay: Cytotoxicity against human MCF7 cells; type: functional; conditions: for CC50: read-out: pLC50 (the source's name) (converted); for TGI: read-out: pTGI (converted)
BT-549 = assay: Cytotoxicity against human BT549 cells; type: functional; conditions: for CC50: read-out: pLC50 (the source's name) (converted); for TGI: read-out: pTGI (converted)

`CC(C)=CCC/C(C)=C/Cc1c(O)cc(/C=C/c2cc(O)c3c(c2)C[C@@H]2C(C)(C)[C@H](O)[C@H](O)C[C@@]2(C)O3)cc1O` [SCHWEINFURTHIN A] gave an IC50 (SF-295) of 0.06 µg/mL (≈ 0.109 µM), a GI50 (HL-60) of 0.0158 µM and an LC50 (HL-60) of 38.9 µM. The TGI (HL-60) was 0.129 µM, the GI50 (MOLT-4) was 0.0151 µM and the LC50 (MOLT-4) was 57.5 µM. For the same compound, the TGI (MOLT-4) was 1.29 µM, the GI50 (A549) was 0.141 µM and the LC50 (concentration killing 50% of cells) (A549) was 40.7 µM. It also gave a TGI (A549) of 14.1 µM, a GI50 (EKVX) of 0.158 µM and an LC50 (EKVX) of 43.7 µM. It also gave a TGI (EKVX) of 15.1 µM, a GI50 (HOP-92) of 2.57 µM and an LC50 (HOP-92) of 46.8 µM. It also gave a TGI (HOP-92) of 15.1 µM, a GI50 (NCI-H322M) of 6.17 µM and an LC50 (NCI-H322M) of 47.9 µM. The TGI (NCI-H322M) was 20.9 µM, the GI50 (NCI-H522) was 2.57 µM and the LC50 (NCI-H522) was 26.9 µM. The TGI (NCI-H522) was 10 µM, the GI50 (HCT-116) was 0.0525 µM and the LC50 (HCT-116) was 40.7 µM. For the same compound, the TGI (HCT-116) was 14.1 µM, the GI50 (HCT-15) was 1.82 µM and the LC50 (HCT-15) was 25.7 µM. For the same compound, the TGI (HCT-15) was 6.03 µM, the GI50 (KM12) was 1.51 µM and the LC50 (KM12) was 30.2 µM. It also gave a TGI (KM12) of 14.1 µM, a GI50 (M14) of 0.0158 µM and an LC50 (M14) of 2.69 µM. It also gave a TGI (M14) of 0.324 µM, a GI50 (SK-MEL-2) of 1.7 µM and an LC50 (SK-MEL-2) of 42.7 µM. It also gave a TGI (SK-MEL-2) of 12.9 µM, a GI50 (SK-MEL-5) of 0.0912 µM and an LC50 (SK-MEL-5) of 12 µM. The TGI (SK-MEL-5) was 2.82 µM, the GI50 (UACC-257) was 4.27 µM and the LC50 (UACC-257) was 43.7 µM. For the same compound, the TGI (UACC-257) was 18.2 µM, the GI50 (OVCAR-4) was 4.27 µM and the LC50 (OVCAR-4) was 81.3 µM. For the same compound, the TGI (OVCAR-4) was 24 µM, the GI50 (ACHN) was 2.09 µM and the LC50 (ACHN) was 39.8 µM. It also gave a TGI (ACHN) of 15.8 µM, a GI50 (MCF7) of 0.0269 µM and a CC50 (MCF7) of 85.1 µM. It also gave a TGI (MCF7) of 8.13 µM, a GI50 (BT-549) of 12.9 µM and a CC50 (BT-549) of 74.1 µM. It also gave a TGI (BT-549) of 32.4 µM.
Work on `COc1cc(/C=C/c2cc(O)c(C/C=C(\C)CCC=C(C)C)c(O)c2)cc2c1O[C@]1(C)C[C@@H](O)[C@@H](O)C(C)(C)[C@H]1C2` [SCHWEINFURTHIN B] yielded an IC50 (SF-295) of 2.9 µg/mL (≈ 5.15 µM), a GI50 (HL-60) of 0.0372 µM and an LC50 (HL-60) of over 100 µM. The TGI (HL-60) was 1.29 µM, the GI50 (MOLT-4) was 0.0479 µM and the LC50 (MOLT-4) was 11 µM. The TGI (MOLT-4) was 5.25 µM, the GI50 (A549) was 0.339 µM and the LC50 (concentration killing 50% of cells) (A549) was 38.9 µM. The TGI (A549) was 14.1 µM, the GI50 (EKVX) was 0.933 µM and the LC50 (EKVX) was 38 µM. For the same compound, the TGI (EKVX) was 14.1 µM, the GI50 (HOP-92) was 0.933 µM and the LC50 (HOP-92) was 41.7 µM. The TGI (HOP-92) was 12.9 µM, the GI50 (NCI-H322M) was 3.39 µM and the LC50 (NCI-H322M) was 42.7 µM. The TGI (NCI-H322M) was 17 µM, the GI50 (NCI-H522) was 3.02 µM and the LC50 (NCI-H522) was 39.8 µM. The TGI (NCI-H522) was 17 µM, the GI50 (HCT-116) was 0.575 µM and the LC50 (HCT-116) was 22.9 µM. The TGI (HCT-116) was 6.61 µM, the GI50 (HCT-15) was 1.91 µM and the LC50 (HCT-15) was 33.9 µM. The TGI (HCT-15) was 6.92 µM, the GI50 (KM12) was 1.29 µM and the LC50 (KM12) was 18.2 µM. The TGI (KM12) was 9.33 µM, the GI50 (M14) was 0.141 µM and the LC50 (M14) was 4.17 µM. The TGI (M14) was 1.2 µM, the GI50 (SK-MEL-2) was 1.82 µM and the LC50 (SK-MEL-2) was 46.8 µM. For the same compound, the TGI (SK-MEL-2) was 17 µM, the GI50 (SK-MEL-5) was 0.209 µM and the LC50 (SK-MEL-5) was 28.8 µM. For the same compound, the TGI (SK-MEL-5) was 8.91 µM, the GI50 (UACC-257) was 5.75 µM and the LC50 (UACC-257) was 46.8 µM. It also gave a TGI (UACC-257) of 20.9 µM, a GI50 (OVCAR-4) of 12 µM and an LC50 (OVCAR-4) of 77.6 µM. The TGI (OVCAR-4) was 50.1 µM, the GI50 (ACHN) was 4.27 µM and the LC50 (ACHN) was 43.7 µM. It also gave a TGI (ACHN) of 20 µM, a GI50 (MCF7) of 0.2 µM and a CC50 (MCF7) of 38.9 µM. The TGI (MCF7) was 6.03 µM, the GI50 (BT-549) was 11 µM and the CC50 (BT-549) was 83.2 µM. It also gave a TGI (BT-549) of 39.8 µM.
